# Biological target: T1, CpeCA (Clostridium perfringens, UniProt A0A0H2YPC2)
# T1 construct: gene CPF_0414
# Conditions: read-out: CpeCA^bβ; CO2 1.7-17 mM, 20 mM TRIS pH 8.3, 20 mM Na2SO4, 15 min pre-incubation at room temperature; errors 5-10%
# T1 sequence (A0A0H2YPC2 1-190): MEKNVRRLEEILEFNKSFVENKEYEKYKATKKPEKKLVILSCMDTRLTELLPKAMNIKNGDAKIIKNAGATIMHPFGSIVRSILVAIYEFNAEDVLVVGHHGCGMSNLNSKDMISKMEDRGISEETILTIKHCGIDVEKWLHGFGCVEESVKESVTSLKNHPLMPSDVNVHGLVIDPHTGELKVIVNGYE
row,SMILES,Ki [nM]
1,"CCN[C@H]1CN(CCCOC)S(=O)(=O)c2sc(S(N)(=O)=O)cc21 [BRZ, brinzolamide]",121
2,"NS(=O)(=O)c1nnc(NS(=O)(=O)c2ccccc2)s1 [BZA, benzolamide]",497
3,"Cc1ccc(-c2cc(C(F)(F)F)nn2-c2ccc(S(N)(=O)=O)cc2)cc1 [CLX, celecoxib]",312
4,"NS(=O)(=O)c1cc(Cl)c(Cl)c(S(N)(=O)=O)c1 [DCP, dichlorophenamide]",68
5,"NS(=O)(=O)c1cc2c(cc1Cl)NCNS2(=O)=O [HCT, hydrochlorothiazide]",219
6,"NS(=O)(=O)c1ccc(S(=O)(=O)Nc2cccc3c(Cl)c[nH]c23)cc1 [IND, indisulam]",173
7,"CC(=O)N=c1sc(S(N)(=O)=O)nn1C [MZA, methazolamide]",113
8,"O=C1NS(=O)(=O)c2ccccc21 [SAC, saccharin]",> 100000
9,"CCN1CCCC1CNC(=O)c1cc(S(N)(=O)=O)ccc1OC (centres unmarked) [SLP, sulpiride]",389
10,"NS(=O)(=O)c1ccc(N2CCCCS2(=O)=O)cc1 [SLT, sulthiame]",63.1
11,"CC1(C)O[C@@H]2[C@@H](CO[C@@]3(COS(N)(=O)=O)OC(C)(C)O[C@@H]23)O1 [TPM, topiramate]",204
12,"Cc1onc(-c2ccccc2)c1-c1ccc(S(N)(=O)=O)cc1 [VLX, valdecoxib]",160
13,"NS(=O)(=O)Cc1noc2ccccc12 [ZNS, zonisamide]",> 100000
14,"NS(=O)(=O)c1ccc(CCNS(=O)(=O)c2ccc([N+](=O)[O-])cc2CO)cc1 [compound 24, 4-(2-hydroxymethyl-4-nitrophenyl-sulphonamido)ethylbenzenesulphonamide]",51.2

# — article PMC6009973 (Journal of Enzyme Inhibition and Medicinal Chemistry, 2017)
